Data from PubChem BioAssay (NCI).
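Tested at 5 concentrations; 48 h exposure; 96-well plates; endpoints linearly interpolated, else capped at highest concentration. TGI is the concentration that stops growth completely.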

Legend:
Assay in all cases: NCI tumour cell line growth inhibition, 48 h
[1] = system: BT-549 breast
[2] = system: CAKI-1 renal
[3] = system: HS 578T breast
[4] = system: HT29 colon
[5] = system: K-562 leukemia
[6] = system: MDA-N
[7] = system: OVCAR-3 ovarian
[8] = system: PC-3 prostate
[9] = system: RPMI-8226 leukemia
[10] = system: U251 CNS
[11] = system: UACC-257 melanoma

Structure (SMILES)	TGI [1]	TGI [2]	TGI [3]	TGI [4]	TGI [5]	TGI [6]	TGI [7]	TGI [8]	TGI [9]	TGI [10]	TGI [11]
COc1ccc(C2=C(N)c3c(OC)cccc3C2=O)cc1	> 100 µM	> 100 µM	> 100 µM	> 100 µM	> 100 µM	> 100 µM	> 100 µM	> 100 µM	> 100 µM	> 100 µM	–
NC1=NN(c2ccccc2)C2(O)c3ccncc3C3=NN(c4ccccc4)C(=O)C132 (centres undefined)	> 100 µM	> 100 µM	> 100 µM	> 100 µM	> 100 µM	> 100 µM	> 100 µM	> 100 µM	> 100 µM	> 100 µM	> 100 µM
CN(/N=C/c1ccccn1)C1=NCCCCN1	> 100 µM	> 100 µM	> 100 µM	> 100 µM	> 100 µM	> 100 µM	> 100 µM	> 100 µM	> 100 µM	> 100 µM	> 100 µM
O=C1c2ccccc2-c2ccc(N=Nc3c(O)ccc4ccccc34)cc21	> 100 µM	> 100 µM	> 100 µM	> 100 µM	> 100 µM	> 100 µM	> 100 µM	> 100 µM	> 100 µM	> 100 µM	> 100 µM
CC(=O)NC1C(O)C(O)C(CO)OC1n1ncc(=O)[nH]c1=O (centres undefined)	> 100 µM	> 100 µM	> 100 µM	> 100 µM	> 100 µM	> 100 µM	> 100 µM	> 100 µM	> 100 µM	> 100 µM	> 100 µM
CN(C)CCCCN1c2ccccc2Sc2cc(N=[N+]=[N-])ccc21	22.9 µM	3.73 µM	9.83 µM	2.9 µM	–	3.1 µM	3.59 µM	4.22 µM	6.06 µM	4.27 µM	3.25 µM
CCOC(=O)C1C(c2ccc(OC)cc2)c2c([nH][nH]c2=O)CC1(O)OCC (centres undefined)	> 100 µM	> 100 µM	> 100 µM	> 100 µM	–	> 100 µM	> 100 µM	> 100 µM	> 100 µM	> 100 µM	> 100 µM
CC(=O)OCC1OC(N2C(C)=C(C(C)=O)C(c3ccco3)C(C#N)=C2S)C(OC(C)=O)C(OC(C)=O)C1OC(C)=O (centres undefined)	> 100 µM	> 100 µM	> 100 µM	> 100 µM	> 100 µM	> 100 µM	> 100 µM	> 100 µM	> 100 µM	> 100 µM	> 100 µM
[O-][n+]1onc(-c2ccccc2)c1CN1CCOCC1	> 100 µM	> 100 µM	> 100 µM	> 100 µM	> 100 µM	> 100 µM	> 100 µM	> 100 µM	> 100 µM	> 100 µM	> 100 µM
CCCCCC(CO)C(O)(C(F)(F)F)C(F)(F)F (centres undefined)	> 10 µM	> 10 µM	> 10 µM	> 10 µM	> 10 µM	> 10 µM	> 10 µM	> 10 µM	> 10 µM	> 10 µM	> 10 µM
N#Cc1c(Cl)/c(=C/O)c(=O)n2c1nc1ccccc12	> 100 µM	> 100 µM	94.7 µM	> 100 µM	> 100 µM	> 100 µM	99.5 µM	> 100 µM	> 100 µM	> 100 µM	> 100 µM
Nc1cn(Cc2ccccc2)c2nc(/C=C3/C=CC=CC3=O)c(O)n12	> 100 µM	> 100 µM	> 100 µM	> 100 µM	> 100 µM	> 100 µM	> 100 µM	> 100 µM	> 100 µM	> 100 µM	> 100 µM
CCCCC(=O)NC1(c2cc3ccccc3s2)CCCCC1	> 100 µM	> 100 µM	> 100 µM	> 100 µM	> 100 µM	> 100 µM	> 100 µM	> 100 µM	> 100 µM	> 100 µM	> 100 µM
Cc1nn(-c2ccccc2)c2[nH]c(=S)cnc12	> 100 µM	> 100 µM	> 100 µM	> 100 µM	> 100 µM	> 100 µM	> 100 µM	> 100 µM	> 100 µM	> 100 µM	> 100 µM
CCOC(=O)/C(C#N)=C1\c2c([nH]c(=S)[nH]c2=O)Oc2ccc3ccccc3c21	> 100 µM	> 100 µM	> 100 µM	> 100 µM	> 100 µM	> 100 µM	58.8 µM	> 100 µM	> 100 µM	> 100 µM	> 100 µM
Cc1cccc(C)c1NC(=S)NC=C(C(N)=O)C(N)=O	> 100 µM	> 100 µM	> 100 µM	> 100 µM	> 100 µM	> 100 µM	> 100 µM	> 100 µM	> 100 µM	> 100 µM	> 100 µM
COc1ccc(-c2c(CN3CCOCC3)sc3nc4ccccc4n23)cc1	> 100 µM	> 100 µM	> 69.7 µM	31.1 µM	> 28.7 µM	5.38 µM	> 80.9 µM	> 67.4 µM	23.4 µM	41.5 µM	> 100 µM
